Measurements: doi:10.1101/2024.12.09.627564, “Cannabinoid inhibition of mechanosensitive K^+ channels” (bioRxiv, 2024)
Like-named read-outs stand apart in the source and are kept apart here.

What was measured:
Homo sapiens TRAAK = biological target: T1, Homo sapiens TRAAK (Homo sapiens, UniProt Q9NYG8); assay: Excised inside-out patch recording of TRAAK from Xenopus oocytes; assay type: biochemical
T1 construct: The transcribed messages encode H. sapiens TRAAK amino acids 1–393; expressed in transfected cells; host or cells: Xenopus laevis oocytes, cRNA injection
T1 sequence (Q9NYG8 1-393): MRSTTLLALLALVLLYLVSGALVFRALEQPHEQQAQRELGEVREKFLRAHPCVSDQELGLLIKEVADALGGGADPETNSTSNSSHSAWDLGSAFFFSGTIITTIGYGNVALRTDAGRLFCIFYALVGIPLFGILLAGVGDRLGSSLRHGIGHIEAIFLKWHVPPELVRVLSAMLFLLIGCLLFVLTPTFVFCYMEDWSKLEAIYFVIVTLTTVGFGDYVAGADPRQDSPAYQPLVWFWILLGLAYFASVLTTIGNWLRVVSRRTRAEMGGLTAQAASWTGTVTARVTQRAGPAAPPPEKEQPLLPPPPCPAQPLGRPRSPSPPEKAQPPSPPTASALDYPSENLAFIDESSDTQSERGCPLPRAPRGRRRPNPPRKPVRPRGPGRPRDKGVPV
Source text: For patch clamp recording from Xenopus oocytes, genes encoding full-length Homo sapiens TRAAK (UniProt Q9NYG8–2), TREK-1 (UniProt O95069), and TREK-2 (UniProt P57789) were codon optimized for eukaryotic expression, synthesized (Genewiz), and cloned into a modified pGEMHE vector using Xho1 and EcoR1 restriction sites. The transcribed messages encode H. sapiens TRAAK amino acids 1–393, TREK-1 amino acids 1–426, or TREK-2 amino acids 1–538 with an additional three amino acids (SNS) at the C terminus. TRAAK mutants were introduced by polymerase chain reaction (PCR). Linearized DNA was transcribed in vitro using T7 polymerase. Complementary RNA (0.1 to 10 ng for TRAAK, TREK-1, TREK-2, and mutants) in 50 nL H2O was injected into Xenopus laevis oocytes extracted from anesthetized frogs. Currents were recorded at 25 °C from inside-out patches excised from oocytes 1 to 5 d after RNA injection. The pipette solution contained 15 mM KCl, 135 mM NaCl, 2 mM MgCl2, and 10 mM HEPES (pH = 7.4 with KOH) and the bath solution contained 150 mM KCl and 10 mM HEPES (pH = 7.1 with KOH). Borosilicate glass pipettes were pulled to 2–5 MΩ resistance.
Patches were evaluated with voltage-step protocols to confirm TRAAK expression and minimal non-specific leak based on reversal potential. Currents were recorded using an Axopatch 200B amplifier (Molecular Devices) at a bandwidth of 1 kHz and digitized with an Digidata 1550B (Molecular Devices) at 100–500 kHz using pClamp10.7 software. Pressure was applied with a second-generation high-speed pressure clamp device (HSPC-2-SB, ALA Scientific Instruments). Aggregated data were from patches from n ≥ 2 different cells on different days. No relevant differences were observed between patches from different cells. In an effort to minimize variability associated with differences in resting membrane tension, we targeted patches with low basal curvature and low resting channel activity and ensured measured pressure difference across the patch was as close to zero as possible at rest to prevent mechanical activation of channels. Data were analyzed using Clampfit 10.7, Excel, and Graphpad Prism software. For voltage families, the data were decimated 100x and plotted in Prism. Statistical analysis was conducted with Dunnett’s multiple comparisons test after an ordinary one-way ANOVA using Prism software.
To avoid cannabinoid absorption to plastic, cannabinoid solutions were made in glass vials and diluted by weight, perfusion was performed using glass tubing pulled from borosilicate glass Pasteur pipettes (Fisherbrand, Cat# 13–678-20C), and recordings were performed in glass chambers. Channel activity was continuously recorded during perfusion steps. Patches were exposed to each cannabinoid concentration until a stable current level was reached (0.5–2 minutes). CBD (Cayman Chemical cat#90080) was prepared as a 10mM stock solution in DMSO, CBN (Cayman Chemical cat#25495) was prepared as a 80mM stock solution in DMSO, CBDV (Phytolab Cat#85955) was prepared as a 10mM stock solution in DMSO, and CBDP (Cayman Chemical cat#33611) was purchased as a 2.9 mM stock solution in methanol. Cannabinoids were serially diluted in bath solution to achieve working concentrations of 50 μM to 10 nM. Bath volume in the recording chamber was minimized by suction and drug-containing solutions were delivered three times to ensure establishment of desired concentration in the recording chamber. Cannabinoids were applied from low to high concentration. The recording chamber and perfusion system were washed extensively with methanol after every trial.
The effects of cannabinoids on channel activity were quantified by the reduction in channel current evoked at 0 mV during a gap-free recording or during 200 ms long voltage families with steps ranging from −100 to +100 mV. Currents were normalized to those prior to cannabinoid application to facilitate comparisons across different patches and cells. […]

CB1 = tested on: CB1; set-up: method as in PMID 27398024; details: partial agonism of CB1; cited from earlier work
CB2 = tested on: CB2; set-up: method as in PMID 27398024; details: partial agonism of CB2; cited from earlier work
[1] = TRAAK inhibition, relative to CBD

Compound: C=C(C)[C@@H]1CCC(C)=CC1c1c(O)cc(CCCCCCC)cc1O (stereo partly drawn) [CBDP, Cannabidiphorol]
- fold more potent than CBD (Homo sapiens TRAAK; [1]): ~ 10 fold
- IC50 (Homo sapiens TRAAK; wild-type TRAAK, excised patch, current at 0 mV, all glass components, read-out: IC50): 17 ± 3 nM

Compound: CCCCCc1cc(O)c2c(c1)OC(C)(C)c1ccc(C)cc1-2 [CBN, Cannabinol]
- IC50 (Homo sapiens TRAAK): 107 nM
- more potent than CBD (Homo sapiens TRAAK; [1]): ~ 33%

Compound: C=C(C)[C@@H]1CCC(C)=C[C@H]1c1c(O)cc(CCC)cc1O [CBDV, cannabidivarin]
- inhibition of TRAAK channels at high concentration (Homo sapiens TRAAK; 20 μM): fully inhibits
- fold less potent than CBD (Homo sapiens TRAAK; [1]): ~ 40 fold
- IC50 (Homo sapiens TRAAK; wild-type TRAAK, excised patch, current at 0 mV, read-out: IC50): 5580 ± 340 nM
